Values after ≈ are worked out from the molar mass of the structure shown.
Tests used:
[1] = tested on: HA-MRSA; assay: Susceptibility testing MIC/MBC, broth microdilution (Example 3); format: cell-based, Staphylococcus aureus
Method: Two hundred clinical HA-MRSA isolates, harboring the SCCmecIV type, were evaluated for susceptibility testing. […] Four strains, including 1 hVISA and 1 VISA, characterized by population analysis profile and Macro Etest were selected for time-kill analysis.
Trypose soy agar (TSA; Difco, Detroit, Mich.) was used for colony counting.
Minimum inhibitory concentrations (MIC) and minimum bactericidal concentrations (MBC) were determined by broth microdilution for all antimicrobials, according to the Clinical and Laboratory Standards Institute (CLSI) guidelines (Clinical and Laboratory Standards Institute. 2006. Methods for Dilution Antimicrobial Susceptibility Tests for Bacteria That Grow Aerobically; Approved Standard. 7th ed. Wayne, Pa.: CLSI). MBC values were determined by plating of aliquots of 5 μL from clear wells onto TSA. All susceptibility testing were performed in duplicate.

[2] = tested on: HA-MRSA; assay: Time-kill curves at ¼ and ½ MIC (Example 3); format: cell-based, Staphylococcus aureus; conditions: drug alone at ½ MIC, the 4 tested HA-MRSA strains
Method: Four randomly selected HA-MRSA isolates were evaluated in time-kill experiments, using a starting inoculum at ˜10^6 CFU/mL and antimicrobials at ¼ and ½ MIC. Regimens included ceftaroline, vancomycin and tobramycin alone or combination of tobramycin with ceftaroline or vancomycin. […] Additivity, antagonism and indifference were defined as <2 but >1 log10 kill, >1 log10 growth and ±1 log kill, respectively.
Differences between regimens were analyzed by T-test or ANOVA with Tukey's post hoc test. […] A P value <0.05 was considered significant.

[3] = tested on: Staphylococcus aureus; assay: MIC, broth microdilution (Example 1); format: cell-based; conditions: Staphylococcus aureus
How it was run: (§1)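 Following the CLSI M7-A7 microdilution standard, each agent alone was tested across seven 2-fold steps. The drugs were in DMSO, and the medium was HTM, MH II broth, or MH II broth with 2% lysed horse blood depending on species. MIC was read visually after ~20 h at 35 °C.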

[4] = tested on: Streptococcus pneumoniae; assay: MIC, broth microdilution (Example 1); format: cell-based; conditions: Streptococcus pneumoniae
How it was run: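 Broth microdilution per CLSI M7-A7; H. influenzae in Haemophilus Test Medium, streptococci in Mueller Hinton II Broth with 2% lysed horse blood, other organisms in Mueller Hinton II Broth. Two-fold serial dilutions; plates incubated 35° C ~20 hours, MIC read visually as growth/no-growth.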

[5] = tested on: Enterococcus faecalis; assay: MIC, broth microdilution (Example 1); format: cell-based
How it was run: as §1

[6] = Staphylococcus aureus, MRSA / VISA, HA-MRSA isolate R2303 (VISA)
[7] = Staphylococcus aureus, MRSA, HA-MRSA isolate R3804
[8] = Staphylococcus aureus, MRSA, HA-MRSA isolate R3875 (hVISA)
[9] = Staphylococcus aureus, MRSA, HA-MRSA isolate R4039

CN[C@H](CC(C)C)C(=O)N[C@H]1C(=O)N[C@@H](CC(N)=O)C(=O)N[C@H]2C(=O)N[C@H]3C(=O)N[C@H](C(=O)N[C@H](C(=O)O)c4cc(O)cc(O)c4-c4cc3ccc4O)[C@H](O)c3ccc(c(Cl)c3)Oc3cc2cc(c3O[C@@H]2O[C@H](CO)[C@@H](O)[C@H](O)[C@H]2O[C@H]2C[C@](C)(N)[C@H](O)[C@H](C)O2)Oc2ccc(cc2Cl)[C@H]1O [Vancomycin]
% of Isolates with MBC 0.25 μg/mL ([1]; 200 HA-MRSA isolates): 0.5%
% of Isolates with MBC 0.5 μg/mL ([1]; 200 HA-MRSA isolates): 6%
% of Isolates with MBC 1 μg/mL ([1]; 200 HA-MRSA isolates): 52.5%
% of Isolates with MBC 2 μg/mL ([1]; 200 HA-MRSA isolates): 36.5%
% of Isolates with MBC ≧4 μg/mL ([1]; 200 HA-MRSA isolates): 4.5%
% of Isolates with MIC 0.25 μg/mL ([1]; 200 HA-MRSA isolates): 1.5%
% of Isolates with MIC 0.5 μg/mL ([1]; 200 HA-MRSA isolates): 14.5%
% of Isolates with MIC 1 μg/mL ([1]; 200 HA-MRSA isolates): 62%
% of Isolates with MIC 2 μg/mL ([1]; 200 HA-MRSA isolates): 21.5%
% of Isolates with MIC ≧4 μg/mL ([1]; 200 HA-MRSA isolates): 0.5%
MBC range ([1]; 200 HA-MRSA isolates): 0.25 to 4 µg/mL
MIC range ([1]; 200 HA-MRSA isolates): 0.25 to 4 µg/mL
MIC50 ([1]; Staphylococcus aureus, MRSA): 1 µg/mL (≈ 0.69 µM)
MIC90 ([1]; Staphylococcus aureus, MRSA): 2 µg/mL (≈ 1.38 µM)
MBC [1, 6]: 8 µg/mL (≈ 5.52 µM)
MIC [1, 6]: 4 µg/mL (≈ 2.76 µM)
MBC [1, 7]: 1 µg/mL (≈ 0.69 µM)
MIC [1, 7]: 0.5 µg/mL (≈ 0.345 µM)
MBC [1, 8]: 2 µg/mL (≈ 1.38 µM)
MIC [1, 8]: 2 µg/mL (≈ 1.38 µM)
MBC [1, 9]: 1 µg/mL (≈ 0.69 µM)
MIC [1, 9]: 1 µg/mL (≈ 0.69 µM)
bactericidal activity [2]: did not display bactericidal activity
MIC ([3]; MRSA, S. aureus 0765 (MRSA)): 2 µg/mL
MIC ([3]; MRSA, S. aureus 2053 (MRSA)): 1 µg/mL
MIC ([3]; MSSA, S. aureus 0753 (MSSA)): 1 µg/mL
MIC ([3]; MSSA, S. aureus 2063 (MSSA)): 1 µg/mL
MIC ([4]; PRSP, S. pneumoniae 0880 (PRSP)): 0.5 µg/mL
MIC ([4]; PRSP, S. pneumoniae 0884 (PRSP)): 0.5 µg/mL
MIC ([4]; S. pneumoniae 0866 (PSSP)): 0.25 µg/mL
MIC ([4]; S. pneumoniae 0869 (PSSP)): 0.5 µg/mL
MIC ([5]; E. faecalis 0796 (VSE)): 2 µg/mL
MIC ([5]; Enterococcus faecalis): 2 µg/mL
